We go through one substance from patent US11712466B2, “Vaccine composition” (TOHOKU UNIVERSITY, priority 2017, dated 2023).

In one assay the test system is mSnail. Briefly: Gene expression in excised tumor tissue by real-time PCR, mSnail. It counts as in vivo, mouse. The following applies: tumor excised two weeks after implantation. As for the experimental part:
(§1) The mouse implanted with the tumor cells in Example 2 was sacrificed two weeks after implantation of the tumor cells, and a tumor was excised from the right axillary subcutaneous region. By using RNeasy Plus Kit (Qiagen, Inc.), extraction of the total RNA from the excised tumor and purification thereof were carried out. By using the obtained total RNA as a template, cDNA was synthesized by reverse transcription reaction. The cDNA was analyzed by performing real-time PCR using a mixed solution of the obtained cDNA and SYBR green (TAKARA BIO, Inc.).

In assay [1] the test system is antigen peptide (peptide-conjugated BSA). Briefly: Antibody titer in blood of immunized mice by ELISA against antigen peptide. It counts as in vivo, mouse. The text has this: (§2) C57BL/6J male mice aged 8 weeks were purchased from Charles River Laboratories Japan, Inc. After the delivery, the mice were reared in an environment where the room temperature and the light and dark cycles were maintained, and were provided with feed and water ad libitum. As a candidate sequence leading to activation of helper T cells by MHC class II, two peptide sequences: MTGSAADTHR (SEQ ID NO: 4; hereinafter, a peptide composed of the amino acid sequence is referred to as “MTG peptide”) and RRRQASPPRR (SEQ ID NO: 5; hereinafter, a peptide composed of the amino acid sequence is referred to as “RRR peptide”), each of which is not common to VASH1 in the VASH2 sequence were selected (FIG. 1). With respect to these peptides, peptide vaccines using KLH as a carrier were constructed. Note that for the conjugation of each peptide with KLH, a glutaraldehyde method was used. When the amount of the peptide introduced into KLH was measured for each of the obtained peptide vaccines, the amount of MTG was 66 to 70 nmol/mg of the conjugate, and the amount of RRR was 62 to 76 nmol/mg of the conjugate. Subsequently, 5 μg of KLH (control) and 20 μg of each of the KLH-antigen complexes were prepared with physiological saline so that the total amount was 50 μL, respectively, whereby KLH-mixed solutions were obtained. To each of the KLH-mixed solutions (50 μL), an equal amount of complete Freund's adjuvant was added. The obtained mixture was subcutaneously administered to the mice, whereby initial immunization was carried out. After 2 weeks from the administration, booster immunization was carried out by subcutaneously administering a mixture of each of the KLH-mixed solutions (50 μL) and an equal amount of incomplete Freund's adjuvant to the mice. Further, after 2 weeks from the booster immunization (after a total of 4 weeks), an increase in the antibody titer in the blood of each of the immunized mice was verified by ELISA.
The measurement of the antibody titer by ELISA was carried out as follows. After 2 weeks from the booster immunization (after a total of 4 weeks), the blood was collected from the facial vein of each of the immunized mice, and the serum separated from the blood was subjected to ELISA. By using 50 mM carbonate buffer, peptide-conjugated BSA was prepared at 10 μg/mL, and further a recombinant VASH2 protein was prepared at 1 μg/mL, each of which was added at 50 μL/well, and the resultant was left to stand overnight at 4° C. After the solution in each well was removed, 5% skim milk was added at 150 μL/well. […] After 30 minutes, the reaction was stopped by adding 0.5 N H2SO4 at 50 μL/well, and an absorbance (450 nm) was measured using a microplate reader.
For orientation: In an ELISA, binding on a coated surface is turned into a signal by an enzyme label.

For a further assay, the system named is mZeb1. Briefly: Gene expression in excised tumor tissue by real-time PCR, mZeb1. Type of assay: in vivo, mouse. The following applies: tumor excised two weeks after implantation. As for the experimental part:
as §1
In general terms: In qPCR the cycle at which signal appears reflects the starting amount.

The test system of assay [2] is RH30 rhabdomyosarcoma cells. Briefly: In vitro wound migration method with serum of immunized mouse (RH30). Type of assay: cell-based, human. The conditions noted are these: 1% serum of mouse with increased anti-VASH2 titer after vaccine; 24 and 48 hours. As to the method:
(§3) By using the serum derived from a mouse in which an increase in the antibody titer against the recombinant human VASH2 protein by administration of the MTG peptide vaccine was confirmed, the effect on the migration ability of various types of cancer cells was examined by an in vitro wound migration method. Mouse-derived Lewis lung cancer cells and human-derived RH30 rhabdomyosarcoma cells were added to a 6-well plate at 1.0×10^6 cells each. After 24 hours, a formed cell monolayer was wounded and linearly exfoliated. After the exfoliation, the medium was replaced with fresh 0.5% FBS+RPMI medium supplemented with 1% mouse serum. At 24 hours and 48 hours after the medium replacement, the image of the cell monolayer was captured using an IX71 inverted microscope (manufactured by Olympus Corporation), and a cell migration distance of each time zone was analyzed using ImageJ software. The analysis was carried out according to the following formula. Cell migration distance (%)={(A−B)/A}×100
(§4) A: Width of initial wound, B: Width of wound after 24 hours or 48 hours

In assay [3] the test system is recombinant human VASH2 protein. As to the kind of experiment: Antibody titer in blood of immunized mice by ELISA against recombinant VASH2 protein. It counts as in vivo, mouse. The following applies: for production of an antibody specific to VASH2: Example 5: C57BL/6J mice.
Excerpt: as §2
The measurement of the antibody titer by ELISA was carried out as follows. After 2 weeks from the booster immunization (after a total of 4 weeks), the blood was collected from the facial vein of each of the immunized mice, and the serum separated from the blood was subjected to ELISA. By using 50 mM carbonate buffer, peptide-conjugated BSA was prepared at 10 μg/mL, and further a recombinant VASH2 protein was prepared at 1 μg/mL, each of which was added at 50 μL/well, and the resultant was left to stand overnight at 4° C. After the solution in each well was removed, 5% skim milk was added at 150 μL/well. After the resultant was left to stand at room temperature for 2 hours, the solution was removed, and subsequently, a serum sample diluted by 20 to 62500 times with 5% skim milk was added at 50 μL/well, and the resultant was left to stand overnight at 4° C. Subsequently, washing was carried out with PBS (200 μL/well×6 times), and thereafter, a secondary antibody (HRP-conjugated anti-Mouse IgG) diluted by 1000 times with 5% skim milk was added at 50 μL/well. After the resultant was left to stand at room temperature for 3 hours, washing was carried out with PBS (200 μL/well×3 times). Thereafter, tetramethylbenzidine (TMB) was added at 50 μL/well, and the resultant was left to stand at room temperature under light shielding. After 30 minutes, the reaction was stopped by adding 0.5 N H2SO4 at 50 μL/well, and an absorbance (450 nm) was measured using a microplate reader.

The next assay relates to Lewis lung cancer cells. As to the kind of experiment: In vitro wound migration method with serum of immunized mouse (LLC). Type of assay: cell-based. The conditions noted are these: 1% serum of mouse with increased anti-VASH2 titer after vaccine; 24 and 48 hours. As to the method: as §3, §4
The test system of a further assay is K5 cells. As to the kind of experiment: Tumor growth inhibitory effect, subcutaneous implant model of K5 cells. It counts as in vivo, mouse. As to the method: 100 μg of KLH (control) or 100 μg of the MTG peptide vaccine was prepared with physiological saline so that the total amount was 100 &L, respectively, whereby KLH-mixed solutions were obtained. To each of the KLH-mixed solutions (100 μL), an equal amount of Alhydrogel (registered trademark) was added. The obtained mixture (200 μL) was intradermally (ID) administered to C57BL/6Jx129SVJ mice aged 8 weeks, whereby initial immunization was carried out (0 day). After 2 weeks from the administration (14 days), booster immunization was carried out. Further, after 2 weeks from the booster immunization (28 days), K5 cells were implanted in each of the mice, whereby a subcutaneous implant model was prepared. In order to confirm that an anti-VASH2 antibody was induced in the mice, the blood was collected at 0 day, 14 day, and 28 day, and the antibody titer was confirmed by ELISA (FIG. 15).

The mark [4] stands for this setting: Example 1: C57BL/6J mice, KLH-antigen complex s.c., Freund's adjuvant, serum 2 weeks after booster (total 4 weeks).
[5] abbreviates: Example 6: C57BL/6J mice, 20 or 100 μg, Alhydrogel, day 28.
Where [6] appears, read: Example 8: C57BL/6Jx129SVJ mice, 100 μg, Alhydrogel, day 28.

“Also recorded” adds a separate entry of the source. Ends that are not written are not given here.

For “MTG peptide vaccine: MTG peptide MTGSAADTHR (SEQ ID NO: 4) conjugated with KLH as carrier by a glutaraldehyde method (also: conjugated with KLH by glutaraldehyde)”, in the assay with mSnail, the “expression of mSnail (epithelial-mesenchymal transition marker) in tumor tissue” value is on record as “dose-dependent expression inhibitory effect; also recorded: significantly inhibited depending on the dose”. The “antibody titer against the antigen peptide” value in assay [1] (setting [4]) is “significant concentration-dependent increase”. Further, the “production of an antibody specific to the antigen peptide” value in assay [1] (setting [5]) is reported as “promotes the production of an antibody”. For the same substance, the “induced antibody binding to the antigen peptide (MTG)” value in assay [1] (setting [6]) is “induced an antibody that binds to both”. The “expression of mZeb1 (epithelial-mesenchymal transition marker) in tumor tissue” value in the assay with mZeb1 was “dose-dependent expression inhibitory effect; also recorded: significantly inhibited depending on the dose”. Further, the “cell migration, human-derived RH30 rhabdomyosarcoma cells” value in assay [2] was “migration inhibitory effect”. Also, in assay [3] (setting [4]), the “antibody titer against the recombinant human VASH2 protein” value is given as “a significant increase in the antibody titer was confirmed; also recorded: a significant increase in the antibody titer was observed”. The “production of an antibody specific to VASH2” value in assay [3] (20 or 100 μg, Alhydrogel adjuvant, day 28) is recorded as “promoted the production of an antibody specific to VASH2”; in assay [3] (20 or 100 μg, Freund's adjuvant, day 28), “promoted the production of an antibody specific to VASH2”. In assay [3] (setting [5]), the “production of an antibody specific to the VASH2 recombinant protein” value is recorded as “promotes the production of an antibody”. Besides, the “induced antibody binding to the VASH2 recombinant protein” value in assay [3] (setting [6]) was “induced an antibody that binds to both”. The “cell migration, mouse-derived Lewis lung cancer cells” value in the assay with Lewis lung cancer cells was “migration inhibitory effect”. Besides, in the assay on K5 cells (C57BL/6Jx129SVJ mice n=2, 100 μg, 14 to 40 days after implantation), the “tumor size (tumorigenesis), K5 cells, Experiment 1” value is recorded as “significant inhibition of tumorigenesis”. Further, the “tumor size (tumorigenesis), K5 cells, Experiment 2” value in the assay on K5 cells (C57BL/6Jx129SVJ mice n=11, 100 μg, day 15 after implantation, vs KLH p=0.0002) was “tumorigenesis was significantly inhibited”.
